Data from the kinase profiling compilation of Christmann-Franck et al. (2016).

Legend:
Assay in all cases: KINOMEscan competition binding
Conditions in all cases: compound 10.0 µM
PRPF4B (human) = PRPF4B (human) (UniProt Q13523)
PKMYT1 (human) = PKMYT1 (human) (UniProt Q99640)
EPHB2 (human) = EPHB2 (human) (UniProt P29323)
MAST1 (human) = MAST1 (human) (UniProt Q9Y2H9)
CSNK2A2 (human) = CSNK2A2 (human) (UniProt P19784)
CSNK1G1 (human) = CSNK1G1 (human) (UniProt Q9HCP0)
FGFR4 (human) = FGFR4 (human) (UniProt P22455)
STK3 (human) = STK3 (human) (UniProt Q13188)
YSK4 (human) = YSK4 (human) (UniProt Q56UN5)
RET (human) = RET (human) (UniProt P07949)
MTOR (human) = MTOR (human) (UniProt P42345)
EPHB4 (human) = EPHB4 (human) (UniProt P54760)
CDK17 (human) = CDK17 (human) (UniProt Q00537)
CAMK2B (human) = CAMK2B (human) (UniProt Q13554)
ANKK1 (human) = ANKK1 (human) (UniProt Q8NFD2)
MAP3K11 (human) = MAP3K11 (human) (UniProt Q16584)
MAP2K4 (human) = MAP2K4 (human) (UniProt P45985)
MKNK2 (human) = MKNK2 (human) (UniProt Q9HBH9)
MAP3K6 (human) = MAP3K6 (human) (UniProt O95382)
CAMKK2 (human) = CAMKK2 (human) (UniProt Q96RR4)
CAMKK2 (human), sequence (Q96RR4 whole entry, looked up): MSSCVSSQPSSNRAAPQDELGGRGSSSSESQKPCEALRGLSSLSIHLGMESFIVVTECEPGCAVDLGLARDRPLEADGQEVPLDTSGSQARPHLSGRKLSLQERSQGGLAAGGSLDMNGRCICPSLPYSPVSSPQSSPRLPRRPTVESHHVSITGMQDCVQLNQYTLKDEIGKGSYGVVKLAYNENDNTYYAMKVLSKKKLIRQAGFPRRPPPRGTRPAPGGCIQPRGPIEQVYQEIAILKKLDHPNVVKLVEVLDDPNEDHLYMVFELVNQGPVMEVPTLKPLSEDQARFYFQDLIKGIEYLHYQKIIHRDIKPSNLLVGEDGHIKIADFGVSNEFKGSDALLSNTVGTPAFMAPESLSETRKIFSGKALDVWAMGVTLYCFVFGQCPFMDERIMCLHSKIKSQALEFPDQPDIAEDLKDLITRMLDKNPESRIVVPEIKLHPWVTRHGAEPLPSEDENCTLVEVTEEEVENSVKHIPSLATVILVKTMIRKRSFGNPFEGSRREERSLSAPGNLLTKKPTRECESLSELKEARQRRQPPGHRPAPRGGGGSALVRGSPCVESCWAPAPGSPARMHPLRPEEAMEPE

MERTK (human) = MERTK (human) (UniProt Q12866)
MERTK (human), sequence (Q12866 whole entry, looked up): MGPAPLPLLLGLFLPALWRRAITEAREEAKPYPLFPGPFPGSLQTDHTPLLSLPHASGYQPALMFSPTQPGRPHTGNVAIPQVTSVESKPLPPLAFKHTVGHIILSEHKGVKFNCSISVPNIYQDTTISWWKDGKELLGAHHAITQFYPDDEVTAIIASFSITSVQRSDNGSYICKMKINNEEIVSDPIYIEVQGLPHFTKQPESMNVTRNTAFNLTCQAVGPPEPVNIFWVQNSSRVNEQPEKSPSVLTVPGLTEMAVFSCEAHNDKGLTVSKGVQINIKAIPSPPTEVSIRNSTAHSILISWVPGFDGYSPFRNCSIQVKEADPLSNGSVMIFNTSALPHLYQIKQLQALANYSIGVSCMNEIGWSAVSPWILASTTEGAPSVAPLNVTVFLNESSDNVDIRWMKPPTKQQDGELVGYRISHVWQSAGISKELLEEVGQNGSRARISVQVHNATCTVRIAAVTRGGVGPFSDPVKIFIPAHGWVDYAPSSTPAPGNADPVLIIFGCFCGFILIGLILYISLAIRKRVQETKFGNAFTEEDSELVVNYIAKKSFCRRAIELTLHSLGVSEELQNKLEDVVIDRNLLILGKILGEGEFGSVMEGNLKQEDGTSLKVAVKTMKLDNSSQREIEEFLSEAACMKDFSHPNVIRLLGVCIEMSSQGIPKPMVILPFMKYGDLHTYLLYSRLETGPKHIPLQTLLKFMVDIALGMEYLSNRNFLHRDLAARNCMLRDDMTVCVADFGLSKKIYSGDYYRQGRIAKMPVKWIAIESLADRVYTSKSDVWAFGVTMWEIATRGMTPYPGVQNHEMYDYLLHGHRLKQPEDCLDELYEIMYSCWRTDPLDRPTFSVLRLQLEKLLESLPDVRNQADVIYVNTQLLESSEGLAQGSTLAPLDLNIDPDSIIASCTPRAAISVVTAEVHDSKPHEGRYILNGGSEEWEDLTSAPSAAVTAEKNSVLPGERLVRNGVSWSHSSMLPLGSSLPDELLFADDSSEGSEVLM

CPK1 (P.falciparum) = test system: CPK1 (P.falciparum)
AKT1 (human) = AKT1 (human) (UniProt P31749)
AKT1 (human), sequence (P31749 whole entry, looked up): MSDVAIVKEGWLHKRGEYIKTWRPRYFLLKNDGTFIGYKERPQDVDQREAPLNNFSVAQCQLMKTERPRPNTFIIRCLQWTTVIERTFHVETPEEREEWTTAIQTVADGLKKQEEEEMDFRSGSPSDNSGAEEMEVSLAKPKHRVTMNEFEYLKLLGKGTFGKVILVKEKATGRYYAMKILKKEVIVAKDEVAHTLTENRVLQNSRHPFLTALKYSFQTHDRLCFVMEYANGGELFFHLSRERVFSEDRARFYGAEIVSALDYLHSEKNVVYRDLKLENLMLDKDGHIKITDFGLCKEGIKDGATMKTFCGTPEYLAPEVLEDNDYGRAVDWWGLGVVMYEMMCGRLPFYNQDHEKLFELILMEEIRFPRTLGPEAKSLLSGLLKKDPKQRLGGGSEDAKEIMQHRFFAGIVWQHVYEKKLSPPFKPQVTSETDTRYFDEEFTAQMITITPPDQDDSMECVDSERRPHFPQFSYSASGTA

RPS6KA6 KD1 (human) = RPS6KA6 KD1 (human) (UniProt Q9UK32)
EPHA4 (human) = EPHA4 (human) (UniProt P54764)
DDR2 (human) = DDR2 (human) (UniProt Q16832)
DDR2 (human), sequence (Q16832 whole entry, looked up): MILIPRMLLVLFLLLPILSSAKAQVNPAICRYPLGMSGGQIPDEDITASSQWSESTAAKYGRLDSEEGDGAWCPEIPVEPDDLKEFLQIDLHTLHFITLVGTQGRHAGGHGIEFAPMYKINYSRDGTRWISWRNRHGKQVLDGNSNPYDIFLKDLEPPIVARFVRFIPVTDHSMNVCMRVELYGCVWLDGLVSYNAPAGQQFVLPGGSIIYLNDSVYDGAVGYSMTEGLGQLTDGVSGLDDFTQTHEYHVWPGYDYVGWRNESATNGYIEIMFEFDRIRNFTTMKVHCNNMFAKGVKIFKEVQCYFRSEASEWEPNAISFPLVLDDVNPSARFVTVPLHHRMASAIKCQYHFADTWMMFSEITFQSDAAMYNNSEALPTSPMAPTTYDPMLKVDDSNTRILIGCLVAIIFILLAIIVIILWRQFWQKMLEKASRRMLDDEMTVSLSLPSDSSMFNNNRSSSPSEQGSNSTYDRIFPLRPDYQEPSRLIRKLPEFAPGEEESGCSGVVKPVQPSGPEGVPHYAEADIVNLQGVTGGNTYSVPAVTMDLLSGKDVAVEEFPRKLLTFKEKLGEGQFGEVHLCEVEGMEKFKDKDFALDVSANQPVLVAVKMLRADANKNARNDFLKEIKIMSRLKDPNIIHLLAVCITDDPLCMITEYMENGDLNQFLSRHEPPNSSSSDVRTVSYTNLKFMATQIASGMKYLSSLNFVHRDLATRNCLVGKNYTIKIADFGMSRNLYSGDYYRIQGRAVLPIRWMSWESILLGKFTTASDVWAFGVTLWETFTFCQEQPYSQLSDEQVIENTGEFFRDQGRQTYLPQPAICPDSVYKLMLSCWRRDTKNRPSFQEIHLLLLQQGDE

PIK3C2B (human) = PIK3C2B (human) (UniProt O00750)
MAPK13 (human) = MAPK13 (human) (UniProt O15264)
STK36 (human) = STK36 (human) (UniProt Q9NRP7)
DAPK1 (human) = DAPK1 (human) (UniProt P53355)
CLK4 (human) = CLK4 (human) (UniProt Q9HAZ1)
CDKL2 (human) = CDKL2 (human) (UniProt Q92772)
MAP2K7 (human) = MAP2K7 (human) (UniProt O14733)
PRKACA (human) = PRKACA (human) (UniProt P17612)
PRKCH (human) = PRKCH (human) (UniProt P24723)
ADCK3 (human) = ADCK3 (human) (UniProt Q8NI60)
ADCK3 (human), sequence (Q8NI60 whole entry, looked up): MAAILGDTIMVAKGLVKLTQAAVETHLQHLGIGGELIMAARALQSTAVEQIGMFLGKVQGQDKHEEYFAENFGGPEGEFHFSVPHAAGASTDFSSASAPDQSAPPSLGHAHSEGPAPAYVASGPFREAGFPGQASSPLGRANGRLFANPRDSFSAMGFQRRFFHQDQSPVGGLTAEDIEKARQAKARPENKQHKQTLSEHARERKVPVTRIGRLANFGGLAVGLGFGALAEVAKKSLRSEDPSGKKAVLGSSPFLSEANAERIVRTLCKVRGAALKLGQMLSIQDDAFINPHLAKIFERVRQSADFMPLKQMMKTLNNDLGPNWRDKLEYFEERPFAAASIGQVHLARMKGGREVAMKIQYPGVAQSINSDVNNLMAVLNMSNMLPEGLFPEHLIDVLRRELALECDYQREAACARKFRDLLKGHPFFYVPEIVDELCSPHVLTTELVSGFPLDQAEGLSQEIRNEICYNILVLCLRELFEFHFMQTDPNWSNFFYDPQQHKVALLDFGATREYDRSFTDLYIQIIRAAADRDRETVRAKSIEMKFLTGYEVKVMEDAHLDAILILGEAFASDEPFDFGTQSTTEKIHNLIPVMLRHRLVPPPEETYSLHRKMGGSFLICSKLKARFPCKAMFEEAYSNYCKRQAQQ

EPHA3 (human) = EPHA3 (human) (UniProt P29320)
NEK7 (human) = NEK7 (human) (UniProt Q8TDX7)
NEK7 (human), sequence (Q8TDX7 whole entry, looked up): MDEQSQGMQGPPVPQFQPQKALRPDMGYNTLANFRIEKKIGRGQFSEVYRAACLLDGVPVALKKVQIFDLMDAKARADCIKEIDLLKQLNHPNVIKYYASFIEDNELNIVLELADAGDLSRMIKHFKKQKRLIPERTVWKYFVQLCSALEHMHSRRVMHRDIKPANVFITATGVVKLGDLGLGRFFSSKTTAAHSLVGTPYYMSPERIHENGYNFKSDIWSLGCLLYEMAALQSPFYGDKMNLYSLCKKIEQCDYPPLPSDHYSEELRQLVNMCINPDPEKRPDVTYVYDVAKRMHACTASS

SYK (human) = SYK (human) (UniProt P43405)
CASK (human) = CASK (human) (UniProt O14936)

CSNK2A2 (human), sequence (P19784 whole entry, looked up): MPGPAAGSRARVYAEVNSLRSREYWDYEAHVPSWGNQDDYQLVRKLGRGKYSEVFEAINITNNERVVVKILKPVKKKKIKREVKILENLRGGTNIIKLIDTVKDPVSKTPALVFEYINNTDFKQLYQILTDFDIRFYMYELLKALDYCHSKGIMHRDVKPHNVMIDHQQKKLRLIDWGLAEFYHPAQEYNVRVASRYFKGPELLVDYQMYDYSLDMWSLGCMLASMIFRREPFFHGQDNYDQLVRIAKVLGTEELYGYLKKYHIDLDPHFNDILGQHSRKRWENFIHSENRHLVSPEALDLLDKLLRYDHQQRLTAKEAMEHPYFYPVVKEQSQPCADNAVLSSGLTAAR
PKMYT1 (human), sequence (Q99640 whole entry, looked up): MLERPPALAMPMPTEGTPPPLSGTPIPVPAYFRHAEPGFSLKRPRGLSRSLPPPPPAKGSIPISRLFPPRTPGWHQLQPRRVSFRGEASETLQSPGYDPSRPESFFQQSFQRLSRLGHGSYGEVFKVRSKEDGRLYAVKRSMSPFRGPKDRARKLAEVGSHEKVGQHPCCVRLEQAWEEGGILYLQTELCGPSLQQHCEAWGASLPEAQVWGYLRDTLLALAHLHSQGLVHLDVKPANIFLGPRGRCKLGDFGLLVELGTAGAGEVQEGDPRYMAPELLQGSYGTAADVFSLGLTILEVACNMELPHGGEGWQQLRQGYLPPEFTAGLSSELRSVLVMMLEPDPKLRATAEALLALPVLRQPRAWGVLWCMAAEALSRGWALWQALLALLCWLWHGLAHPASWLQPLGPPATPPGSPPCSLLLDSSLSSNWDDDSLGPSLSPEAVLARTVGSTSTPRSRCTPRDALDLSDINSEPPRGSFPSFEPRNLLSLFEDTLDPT

O=C(NOC[C@H](O)CO)c1ccc(F)c(F)c1Nc1ccc(I)cc1F
kinase still bound, per cent of control (PRPF4B (human)): 77% | kinase still bound, per cent of control (PKMYT1 (human)): 80% | kinase still bound, per cent of control (EPHB2 (human)): 73% | kinase still bound, per cent of control (MAST1 (human)): 100% | kinase still bound, per cent of control (CSNK2A2 (human)): 100% | kinase still bound, per cent of control (CSNK1G1 (human)): 61% | kinase still bound, per cent of control (FGFR4 (human)): 54% | kinase still bound, per cent of control (STK3 (human)): 90% | kinase still bound, per cent of control (YSK4 (human)): 100% | kinase still bound, per cent of control (RET (human)): 90% | kinase still bound, per cent of control (MTOR (human)): 100% | kinase still bound, per cent of control (EPHB4 (human)): 100% | kinase still bound, per cent of control (CDK17 (human)): 95% | kinase still bound, per cent of control (CAMK2B (human)): 100% | kinase still bound, per cent of control (ANKK1 (human)): 64% | kinase still bound, per cent of control (MAP3K11 (human)): 100% | kinase still bound, per cent of control (MAP2K4 (human)): 83% | kinase still bound, per cent of control (MKNK2 (human)): 100% | kinase still bound, per cent of control (MAP3K6 (human)): 95% | kinase still bound, per cent of control (CAMKK2 (human)): 100% | kinase still bound, per cent of control (MERTK (human)): 100% | kinase still bound, per cent of control (CPK1 (P.falciparum)): 78% | kinase still bound, per cent of control (AKT1 (human)): 81% | kinase still bound, per cent of control (RPS6KA6 KD1 (human)): 75% | kinase still bound, per cent of control (EPHA4 (human)): 100% | kinase still bound, per cent of control (DDR2 (human)): 100% | kinase still bound, per cent of control (PIK3C2B (human)): 100% | kinase still bound, per cent of control (MAPK13 (human)): 6.1% | kinase still bound, per cent of control (STK36 (human)): 74% | kinase still bound, per cent of control (DAPK1 (human)): 100% | kinase still bound, per cent of control (CLK4 (human)): 89% | kinase still bound, per cent of control (CDKL2 (human)): 87% | kinase still bound, per cent of control (MAP2K7 (human)): 100% | kinase still bound, per cent of control (PRKACA (human)): 72% | kinase still bound, per cent of control (PRKCH (human)): 100% | kinase still bound, per cent of control (ADCK3 (human)): 86% | kinase still bound, per cent of control (EPHA3 (human)): 100% | kinase still bound, per cent of control (NEK7 (human)): 95% | kinase still bound, per cent of control (SYK (human)): 100% | kinase still bound, per cent of control (CASK (human)): 67%
